Assay results taken from patent US10370343B2, “[6,6] Fused bicyclic HDAC8 inhibitors” (FORMA Therapeutics, Inc., priority 2015, dated 2019).

Experiments:
[1] = target: T1, Full length human recombinant HDAC8 protein (Homo sapiens, UniProt Q9BY41); assay: In vitro histone deacetylase assay: enzymatic HDAC8 electrophoretic mobility shift assay; assay type: biochemical; settings: electrophoretic mobility shift assay; enzyme 1 nM; 2 μM fluorescently labeled peptide substrate RHKK(Ac)-NH2; 25° C.; 12 concentrations; read-out: HDAC8 IC50
T1 construct: Full length human recombinant HDAC8 protein was expressed in baculoviral system; made in house
T1 sequence (Q9BY41 1-377): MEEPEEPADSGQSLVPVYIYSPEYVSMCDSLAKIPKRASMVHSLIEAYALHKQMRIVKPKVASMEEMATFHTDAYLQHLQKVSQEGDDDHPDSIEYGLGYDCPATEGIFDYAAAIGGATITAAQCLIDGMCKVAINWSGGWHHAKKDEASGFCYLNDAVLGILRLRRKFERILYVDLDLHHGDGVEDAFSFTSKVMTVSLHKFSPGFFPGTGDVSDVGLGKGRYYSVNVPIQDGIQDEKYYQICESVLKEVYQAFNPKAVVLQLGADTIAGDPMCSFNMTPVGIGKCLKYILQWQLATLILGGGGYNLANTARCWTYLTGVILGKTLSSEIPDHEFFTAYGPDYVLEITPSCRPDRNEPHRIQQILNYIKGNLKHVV

[2] = target: T2, Recombinant N-terminal GST tag full-length human HDAC8 (Homo sapiens, UniProt Q9BY41); assay: HDAC8 probe binding assay, time resolved fluorescence (TRF) format; settings: compounds grouped by IC50 range (Table 2)
T2 construct: Recombinant N-terminal GST tag full-length human HDAC8; purchased SignalChem H90-30G-1000; host or cells: baculovirus in Sf9 insect cells
T2 sequence (Q9BY41 1-377): T1 sequence (Q9BY41 1-377)
Outline: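 Probe-binding TRF assay using full-length N-GST human HDAC8 expressed in baculovirus-infected Sf9 cells, incubated 16 h at room temperature and read at 340 nm excitation, 485/535 nm emission. Percent inhibition was normalised to no-enzyme and DMSO controls. IC50 was obtained by 4-parameter logistic fit.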

Row | Structure (SMILES) | IC50 [1] [nM] | IC50 [2] [nM]
1 | O=C(NO)c1ccc2c(c1)N(Cc1nc(-c3ccccc3)sc1Cl)C(=O)CO2 [Compound I-255, 4-((5-chloro-2-phenylthiazol-4-yl)methyl)-N-hydroxy-3-oxo-3,4-dihydro-2H-benzo[b][1,4]oxazine-6-carboxamide] | 25 to 100 | ≤ 25
2 | O=C(NO)c1ccc2c(c1)N(Cc1ccc(Cl)cc1Cl)C(=O)CO2 [Compound I-256, 4-(2,4-dichlorobenzyl)-N-hydroxy-3-oxo-3,4-dihydro-2H-benzo[b][1,4]oxazine-6-carboxamide] | < 25 | ≤ 25
3 | O=C(NO)c1ccc2c(c1)N(Cc1ccc(Cl)c(Cl)c1)C(=O)CO2 [Compound I-258, 4-(3,4-dichlorobenzyl)-N-hydroxy-3-oxo-3,4-dihydro-2H-benzo[b][1,4]oxazine-6-carboxamide] | < 25 | ≤ 25
4 | O=C(NO)c1ccc2c(c1)N(Cc1cc(C(F)(F)F)ccc1Cl)C(=O)CO2 [Compound I-259, 4-(2-chloro-5-(trifluoromethyl)benzyl)-N-hydroxy-3-oxo-3,4-dihydro-2H-benzo[b][1,4]oxazine-6-carboxamide] | < 25 | ≤ 25
5 | O=C(NO)c1ccc2c(c1)N(Cc1cccc(SC(F)(F)F)c1)C(=O)CO2 [Compound I-263, N-hydroxy-3-oxo-4-(3-((trifluoromethyl)thio)benzyl)-3,4-dihydro-2H-benzo[b][1,4]oxazine-6-carboxamide] | < 25 | ≤ 25
6 | O=C(NO)c1ccc2c(c1)N(Cc1ccc(SC(F)(F)F)cc1)C(=O)CO2 [Compound I-264, N-hydroxy-3-oxo-4-(4-((trifluoromethyl)thio)benzyl)-3,4-dihydro-2H-benzo[b][1,4]oxazine-6-carboxamide] | < 25 | ≤ 25
7 | O=C(NO)c1ccc2c(c1)N(Cc1cccc(C(F)(F)F)c1F)C(=O)CO2 [Compound I-265, 4-(2-fluoro-3-(trifluoromethyl)benzyl)-N-hydroxy-3-oxo-3,4-dihydro-2H-benzo[b][1,4]oxazine-6-carboxamide] | 25 to 100 | 25 to 100
8 | O=C(NO)c1ccc2c(c1)N(Cc1ccc(F)c(C(F)(F)F)c1)C(=O)CO2 [Compound I-267, 4-(4-fluoro-3-(trifluoromethyl)benzyl)-N-hydroxy-3-oxo-3,4-dihydro-2H-benzo[b][1,4]oxazine-6-carboxamide] | 25 to 100 | 25 to 100
9 | O=C(NO)c1ccc2c(c1)N(Cc1cc(F)ccc1C(F)(F)F)C(=O)CO2 [Compound I-268, 4-(5-fluoro-2-(trifluoromethyl)benzyl)-N-hydroxy-3-oxo-3,4-dihydro-2H-benzo[b][1,4]oxazine-6-carboxamide] | 25 to 100 | 25 to 100
10 | O=C(NO)c1ccc2c(c1)N(Cc1ccc(F)cc1Cl)C(=O)CO2 [Compound I-270, 4-(2-chloro-4-fluorobenzyl)-N-hydroxy-3-oxo-3,4-dihydro-2H-benzo[b][1,4]oxazine-6-carboxamide] | < 25 | ≤ 25
11 | O=C(NO)c1ccc2c(c1)N(Cc1csc(-c3ccccc3)n1)C(=O)CO2 [Compound I-271, N-hydroxy-3-oxo-4-((2-phenylthiazol-4-yl)methyl)-3,4-dihydro-2H-benzo[b][1,4]oxazine-6-carboxamide] | 25 to 100 | 25 to 100
12 | O=C(NO)c1ccc2c(c1)N(Cc1nc3cc(Cl)ccc3o1)C(=O)CO2 [Compound I-272, 4-((5-chlorobenzo[d]oxazol-2-yl)methyl)-N-hydroxy-3-oxo-3,4-dihydro-2H-benzo[b][1,4]oxazine-6-carboxamide] | < 25 | ≤ 25
13 | O=C(NO)c1ccc2c(c1)N(Cc1c(F)cccc1Cl)C(=O)CO2 [Compound I-273, 4-(2-chloro-6-fluorobenzyl)-N-hydroxy-3-oxo-3,4-dihydro-2H-benzo[b][1,4]oxazine-6-carboxamide] | 25 to 100 | 25 to 100
14 | O=C(NO)c1ccc2c(c1)N(Cc1ccc(C(F)(F)F)cc1F)C(=O)CO2 [Compound I-274, 4-(2-fluoro-4-(trifluoromethyl)benzyl)-N-hydroxy-3-oxo-3,4-dihydro-2H-benzo[b][1,4]oxazine-6-carboxamide] | < 25 | ≤ 25
15 | O=C(NO)c1ccc2c(c1)N(Cc1c(F)cccc1C(F)(F)F)C(=O)CO2 [Compound I-275, 4-(2-fluoro-6-(trifluoromethyl)benzyl)-N-hydroxy-3-oxo-3,4-dihydro-2H-benzo[b][1,4]oxazine-6-carboxamide] | 25 to 100 | 25 to 100
16 | O=C(NO)c1ccc2c(c1)N(Cc1cc(F)cc(C(F)(F)F)c1)C(=O)CO2 [Compound I-276, 4-(3-fluoro-5-(trifluoromethyl)benzyl)-N-hydroxy-3-oxo-3,4-dihydro-2H-benzo[b][1,4]oxazine-6-carboxamide] | 25 to 100 | 25 to 100
17 | O=C(NO)c1ccc2c(c1)N(Cc1ccc(F)cc1C(F)(F)F)C(=O)CO2 [Compound I-277, 4-(4-fluoro-2-(trifluoromethyl)benzyl)-N-hydroxy-3-oxo-3,4-dihydro-2H-benzo[b][1,4]oxazine-6-carboxamide] | 100 to 1000 | 25 to 100
18 | Cn1c(CN2C(=O)COc3ccc(C(=O)NO)cc32)nc2ccc(Cl)cc21 [Compound I-278, 4-((6-chloro-1-methyl-1H-benzo[d]imidazol-2-yl)methyl)-N-hydroxy-3-oxo-3,4-dihydro-2H-benzo[b][1,4]oxazine-6-carboxamide] | 25 to 100 | 25 to 100
19 | Cc1ccc(CN2C(=O)COc3ccc(C(=O)NO)cc32)c(C)c1 [Compound I-280, 4-(2,4-dimethylbenzyl)-N-hydroxy-3-oxo-3,4-dihydro-2H-benzo[b][1,4]oxazine-6-carboxamide] | 25 to 100 | ≤ 25
20 | CC(C)n1c(CN2C(=O)COc3ccc(C(=O)NO)cc32)nc2ccccc21 [Compound I-281, N-hydroxy-4-((1-isopropyl-1H-benzo[d]imidazol-2-yl)methyl)-3-oxo-3,4-dihydro-2H-benzo[b][1,4]oxazine-6-carboxamide] | 100 to 1000 | > 1000
21 | O=C(NO)c1ccc2c(c1)N(Cc1nc3cccnc3n1Cc1ccccc1)C(=O)CO2 [Compound I-284, 4-((3-benzyl-3H-imidazo[4,5-b]pyridin-2-yl)methyl)-N-hydroxy-3-oxo-3,4-dihydro-2H-benzo[b][1,4]oxazine-6-carboxamide] | 25 to 100 | 25 to 100
22 | COc1ccc2oc(CN3C(=O)COc4ccc(C(=O)NO)cc43)nc2c1 [Compound I-285, N-hydroxy-4-((5-methoxybenzo[d]oxazol-2-yl)methyl)-3-oxo-3,4-dihydro-2H-benzo[b][1,4]oxazine-6-carboxamide] | < 25 | ≤ 25
23 | Cc1ccc2oc(CN3C(=O)COc4ccc(C(=O)NO)cc43)nc2c1 [Compound I-286, N-hydroxy-4-((5-methylbenzo[d]oxazol-2-yl)methyl)-3-oxo-3,4-dihydro-2H-benzo[b][1,4]oxazine-6-carboxamide] | 25 to 100 | 25 to 100
24 | O=C(NO)c1ccc2c(c1)N(Cc1nc3ccccc3o1)C(=O)CO2 [Compound I-288, 4-(benzo[d]oxazol-2-ylmethyl)-N-hydroxy-3-oxo-3,4-dihydro-2H-benzo[b][1,4]oxazine-6-carboxamide] | < 25 | ≤ 25
25 | O=C(NO)c1ccc2c(c1)N(Cc1nc3cc(Cl)ccc3s1)C(=O)CO2 [Compound I-290, 4-((5-chlorobenzo[d]thiazol-2-yl)methyl)-N-hydroxy-3-oxo-3,4-dihydro-2H-benzo[b][1,4]oxazine-6-carboxamide] | < 25 | ≤ 25
26 | Cc1ccc2nc(CN3C(=O)C(C)(C)Oc4ccc(C(=O)NO)cc43)oc2c1 [Compound I-292, N-hydroxy-2,2-dimethyl-4-((6-methylbenzo[d]oxazol-2-yl)methyl)-3-oxo-3,4-dihydro-2H-benzo[b][1,4]oxazine-6-carboxamide] | 25 to 100 | 25 to 100
27 | CC1(C)Oc2ccc(C(=O)NO)cc2N(Cc2nc3cc(Cl)ccc3s2)C1=O [Compound I-296, 4-((5-chlorobenzo[d]thiazol-2-yl)methyl)-N-hydroxy-2,2-dimethyl-3-oxo-3,4-dihydro-2H-benzo[b][1,4]oxazine-6-carboxamide] | < 25 | 25 to 100
28 | O=C(NO)c1ccc2c(c1)N(c1ccccc1)C(=O)CO2 [Compound I-357, N-hydroxy-3-oxo-4-phenyl-3,4-dihydro-2H-benzo[b][1,4]oxazine-6-carboxamide] | 100 to 1000 | 25 to 100
29 | COc1cccc(N2C(=O)COc3ccc(C(=O)NO)cc32)c1 [Compound I-358, N-hydroxy-4-(3-methoxyphenyl)-3-oxo-3,4-dihydro-2H-1,4-benzoxazine-6-carboxamide] | 25 to 100 | 25 to 100
